Test results published in US11986532B2 (Arvinas Operations, Inc., priority 2021, dated 2024).

Target: T1, BCL6 (Homo sapiens, UniProt P41182)
T1 construct: endogenous in cells; host or cells: T47D breast cancer epithelial cells
Experiment: Immunofluorescence protocol for high content imaging of BCL6 (degradation) in T47D cells, 3 days compound treatment
Assay type: cell-based
Conditions: for Dmax: T47D, read-out: Mean Dmax (%)** category; for DC50: read-out: Mean DC50 (nM)* category
How it was run: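 T47D cells in RPMI1640-10% FBS were treated with an 11-point 3-fold dilution series (final top 0.1 or 1 μM) for 3 days at 37° C. After PFA fixation and Triton permeabilization, cells were immunostained with rabbit anti-BCL6 (1:300, overnight 4° C), Alexa-488 secondary, CellMask-647 and Hoechst, then imaged at 10×, 4 fields/well.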

What does the source list for `CNC(=O)COc1cc2cc(Nc3nc(N4CCC(N5CCC6(C5)CN(C5CCN(c7ccc8c(c7)CN(C7CCC(=O)NC7=O)C8=O)CC5)C6)CC4)ncc3Cl)ccc2n(C(C)C)c1=O` (stereo not drawn) [Compound 235, 2-{[6-({5-chloro-2-[4-(2-{1-[2-(2,6-dioxopiperidin-3-yl)-1-oxo-2,3-dihydro-1H-isoindol-5-yl]piperidin-4-yl}-2,6-diazaspiro[3.4]octan-6-yl)piperidin-1-yl]pyrimidin-4-yl}amino)-2-oxo-1-(propan-2-yl)-1,2-dihydroquinolin-3-yl]oxy}-N-methylacetamide]?
Dmax: 50 to 70%; DC50: < 10 nM

For `CNC(=O)COc1cc2cc(Nc3nc(N4CCC(N5CCC6(CN(CC7CCN(c8ccc9c(c8)CN(C8CCC(=O)NC8=O)C9=O)CC7)C6)C5)CC4)ncc3Cl)ccc2n(C(C)C)c1=O` (stereo not drawn) [Compound 236, 2-({6-[(5-chloro-2-{4-[2-({1-[2-(2,6-dioxopiperidin-3-yl)-1-oxo-2,3-dihydro-1H-isoindol-5-yl]piperidin-4-yl}methyl)-2,6-diazaspiro[3.4]octan-6-yl]piperidin-1-yl}pyrimidin-4-yl)amino]-2-oxo-1-(propan-2-yl)-1,2-dihydroquinolin-3-yl}oxy)-N-methylacetamide], which Dmax is on record?
The Dmax was 50 to 70%.

And the DC50?
The DC50 was < 10 nM.

How did the Dmax turn out when `CNC(=O)COc1cc2cc(Nc3cc(N4CCC(CN5CCC6(CN(c7ccc8c(c7F)CN(C7CCC(=O)NC7=O)C8=O)C6)C(F)(F)C5)CC4)ncc3Cl)ccc2n(C(C)C)c1=O` (stereo not drawn) [Compound 237, 2-{[6-({5-chloro-2-[4-({2-[2-(2,6-dioxopiperidin-3-yl)-4-fluoro-1-oxo-2,3-dihydro-1H-isoindol-5-yl]-5,5-difluoro-2,7-diazaspiro[3.5]nonan-7-yl}methyl)piperidin-1-yl]pyridin-4-yl}amino)-2-oxo-1-(propan-2-yl)-1,2-dihydroquinolin-3-yl]oxy}-N-methylacetamide] was run?
Its Dmax is 50 to 70%.

And the DC50?
The DC50 was < 10 nM.

Which results are given for `CNC(=O)COc1cc2cc(Nc3nc(N4CCC(N5CCC56CN(C5CCN(c7ccc8c(c7)CN(C7CCC(=O)NC7=O)C8=O)CC5)C6)CC4)ncc3Cl)ccc2n(C(C)C)c1=O` (stereo not drawn) [Compound 238, 2-{[6-({5-chloro-2-[4-(6-{1-[2-(2,6-dioxopiperidin-3-yl)-1-oxo-2,3-dihydro-1H-isoindol-5-yl]piperidin-4-yl}-1,6-diazaspiro[3.3]heptan-1-yl)piperidin-1-yl]pyrimidin-4-yl}amino)-2-oxo-1-(propan-2-yl)-1,2-dihydroquinolin-3-yl]oxy}-N-methylacetamide]?
Dmax: 50 to 70%; DC50: < 10 nM

With `CNC(=O)COc1cc2cc(Nc3nc(N4CCC(CN5CCC6(CN(c7ccc8c(c7)C(=O)N(C7CCC(=O)NC7=O)C8=O)C6)CC5(C)C)CC4)ncc3Cl)ccc2n(C(C)C)c1=O` (stereo not drawn) [Compound 239, 2-{[6-({5-chloro-2-[4-({2-[2-(2,6-dioxopiperidin-3-yl)-1,3-dioxo-2,3-dihydro-1H-isoindol-5-yl]-6,6-dimethyl-2,7-diazaspiro[3.5]nonan-7-yl}methyl)piperidin-1-yl]pyrimidin-4-yl}amino)-2-oxo-1-(propan-2-yl)-1,2-dihydroquinolin-3-yl]oxy}-N-methylacetamide] as the compound, how does the Dmax read?
The Dmax was ≥ 70%.

What about the DC50 of the same compound?
The DC50 was < 10 nM.

Which Dmax does the source give for `CNC(=O)COc1cc2cc(Nc3cc(N4CCC(F)(CN5CCC6(CC5)CN(c5ccc7c(c5)CN(C5CCC(=O)NC5=O)C7=O)C6(C)C)CC4)ncc3Cl)ccc2n(C(C)C)c1=O` (stereo not drawn) [Compound 240, 2-{[6-({5-chloro-2-[4-({2-[2-(2,6-dioxopiperidin-3-yl)-1-oxo-2,3-dihydro-1H-isoindol-5-yl]-1,1-dimethyl-2,7-diazaspiro[3.5]nonan-7-yl}methyl)-4-fluoropiperidin-1-yl]pyridin-4-yl}amino)-2-oxo-1-(propan-2-yl)-1,2-dihydroquinolin-3-yl]oxy}-N-methylacetamide] here?
Its Dmax is ≥ 70%.

And the DC50?
The DC50 was < 10 nM.

`CNC(=O)COc1cc2cc(Nc3nc(N4CCC(CN5CC(N6CCN(c7ccc8c(c7)C(=O)N(C7CCC(=O)NC7=O)C8=O)CC6)C5)CC4)ncc3Cl)ccc2n(C(C)C)c1=O` (stereo not drawn) [Compound 241, 2-({6-[(5-chloro-2-{4-[(3-{4-[2-(2,6-dioxopiperidin-3-yl)-1,3-dioxo-2,3-dihydro-1H-isoindol-5-yl]piperazin-1-yl}azetidin-1-yl)methyl]piperidin-1-yl}pyrimidin-4-yl)amino]-2-oxo-1-(propan-2-yl)-1,2-dihydroquinolin-3-yl}oxy)-N-methylacetamide] was tested. Which Dmax did it give?
The Dmax was ≥ 70%.

What about the DC50 of the same compound?
The DC50 was 10 to 50 nM.

For `CNC(=O)COc1cc2cc(Nc3nc(N4CCC(CN5CC(N6CCN(c7ccc8c(c7)CN(C7CCC(=O)NC7=O)C8=O)CC6)C5)CC4)ncc3Cl)ccc2n(C(C)C)c1=O` (stereo not drawn) [Compound 242, 2-({6-[(5-chloro-2-{4-[(3-{4-[2-(2,6-dioxopiperidin-3-yl)-1-oxo-2,3-dihydro-1H-isoindol-5-yl]piperazin-1-yl}azetidin-1-yl)methyl]piperidin-1-yl}pyrimidin-4-yl)amino]-2-oxo-1-(propan-2-yl)-1,2-dihydroquinolin-3-yl}oxy)-N-methylacetamide], which Dmax is on record?
Its Dmax is ≥ 70%.

What about the DC50 of the same compound?
Its DC50 is < 10 nM.

`CNC(=O)COc1cc2cc(Nc3cc(N4CCC(O[C@H]5C[C@H](N6CCC(c7ccc8c(c7)C(=O)N(C7CCC(=O)NC7=O)C8=O)CC6)C5)CC4)ncc3Cl)ccc2n(C(C)C)c1=O` (stereo partly drawn) [Compound 243, 2-({6-[(5-chloro-2-{4-[(1r,3r)-3-{4-[2-(2,6-dioxopiperidin-3-yl)-1,3-dioxo-2,3-dihydro-1H-isoindol-5-yl]piperidin-1-yl}cyclobutoxy]piperidin-1-yl}pyridin-4-yl)amino]-2-oxo-1-(propan-2-yl)-1,2-dihydroquinolin-3-yl}oxy)-N-methylacetamide] was tested. Which Dmax did it give?
Its Dmax is < 50%.

What about the DC50 of the same compound?
The DC50 was 10 to 50 nM.

What does the source list for `CNC(=O)COc1cc2cc(Nc3nc(N4CCC(O[C@H]5C[C@H](N6C[C@@H](C)N(c7ccc8c(c7)C(=O)N(C7CCC(=O)NC7=O)C8=O)[C@@H](C)C6)C5)CC4)ncc3Cl)ccc2n(C(C)C)c1=O` (stereo partly drawn) [Compound 244, 2-({6-[(5-chloro-2-{4-[(1r,3r)-3-[(3R,5S)-4-[2-(2,6-dioxopiperidin-3-yl)-1,3-dioxo-2,3-dihydro-1H-isoindol-5-yl]-3,5-dimethylpiperazin-1-yl]cyclobutoxy]piperidin-1-yl}pyrimidin-4-yl)amino]-2-oxo-1-(propan-2-yl)-1,2-dihydroquinolin-3-yl}oxy)-N-methylacetamide]?
Mean Dmax (%)** category: A (A >= 70); DC50: 10 to 50 nM

What does the source list for `CNC(=O)COc1cc2cc(Nc3nc(N4CCC(O[C@H]5C[C@H](N6C[C@@H](C)N(c7ccc8c(c7)C(=O)N(C7CCC(=O)NC7=O)C8=O)[C@H](C)C6)C5)CC4)ncc3Cl)ccc2n(C(C)C)c1=O` (stereo partly drawn) [Compound 245, 2-({6-[(5-chloro-2-{4-[(1r,3r)-3-[(3R,5R)-4-[2-(2,6-dioxopiperidin-3-yl)-1,3-dioxo-2,3-dihydro-1H-isoindol-5-yl]-3,5-dimethylpiperazin-1-yl]cyclobutoxy]piperidin-1-yl}pyrimidin-4-yl)amino]-2-oxo-1-(propan-2-yl)-1,2-dihydroquinolin-3-yl}oxy)-N-methylacetamide]?
Dmax: ≥ 70%; DC50: 10 to 50 nM

For `CNC(=O)COc1cc2cc(Nc3nc(N4CCC(O[C@H]5C[C@H](N6C[C@H](C)N(c7ccc8c(c7)C(=O)N(C7CCC(=O)NC7=O)C8=O)[C@@H](C)C6)C5)CC4)ncc3Cl)ccc2n(C(C)C)c1=O` (stereo partly drawn) [Compound 246, 2-({6-[(5-chloro-2-{4-[(1r,3r)-3-[(3S,5S)-4-[2-(2,6-dioxopiperidin-3-yl)-1,3-dioxo-2,3-dihydro-1H-isoindol-5-yl]-3,5-dimethylpiperazin-1-yl]cyclobutoxy]piperidin-1-yl}pyrimidin-4-yl)amino]-2-oxo-1-(propan-2-yl)-1,2-dihydroquinolin-3-yl}oxy)-N-methylacetamide], which Dmax is on record?
Its Dmax is 50 to 70%.

What about the DC50 of the same compound?
Its DC50 is < 10 nM.

What does the source list for `CNC(=O)COc1cc2c(F)c(Nc3cc(N4CCN(CC5CCC6(CC5)CN(c5cccc7c5C(=O)N(C5CCC(=O)NC5=O)C7=O)C6)CC4)ncc3Cl)ccc2n(C(C)C)c1=O` (stereo not drawn) [Compound 247, 2-{[6-({5-chloro-2-[4-({2-[2-(2,6-dioxopiperidin-3-yl)-1,3-dioxo-2,3-dihydro-1H-isoindol-4-yl]-2-azaspiro[3.5]nonan-7-yl}methyl)piperazin-1-yl]pyridin-4-yl}amino)-5-fluoro-2-oxo-1-(propan-2-yl)-1,2-dihydroquinolin-3-yl]oxy}-N-methylacetamide]?
Dmax: ≥ 70%; DC50: < 10 nM

For `CNC(=O)COc1cc2cc(Nc3nc(N4CCC(O[C@H]5C[C@H](N6[C@H](C)CN(c7ccc8c(c7)C(=O)N(C7CCC(=O)NC7=O)C8=O)C[C@@H]6C)C5)CC4)ncc3Cl)ccc2n(C(C)C)c1=O` (stereo partly drawn) [Compound 248, 2-[[6-[[5-chloro-2-[4-[3-[(2R,6S)-4-[2-(2,6-dioxo-3-piperidyl)-1,3-dioxo-isoindolin-5-yl]-2,6-dimethyl-piperazin-1-yl]cyclobutoxy]-1-piperidyl]pyrimidin-4-yl]amino]-1-isopropyl-2-oxo-3-quinolyl]oxy]-N-methyl-acetamide], which Dmax is on record?
The Dmax was 50 to 70%.

And the DC50?
The DC50 was < 10 nM.

With `CNC(=O)COc1cc2cc(Nc3nc(N4CCC(O[C@H]5C[C@H](N6[C@H](C)CN(c7ccc8c(c7)C(=O)N(C7CCC(=O)NC7=O)C8=O)C[C@H]6C)C5)CC4)ncc3Cl)ccc2n(C(C)C)c1=O` (stereo partly drawn) [Compound 249, 2-({6-[(5-chloro-2-{4-[(1r,3r)-3-[(2R,6R)-4-[2-(2,6-dioxopiperidin-3-yl)-1,3-dioxo-2,3-dihydro-1H-isoindol-5-yl]-2,6-dimethylpiperazin-1-yl]cyclobutoxy]piperidin-1-yl}pyrimidin-4-yl)amino]-2-oxo-1-(propan-2-yl)-1,2-dihydroquinolin-3-yl}oxy)-N-methylacetamide] as the compound, how does the Dmax read?
Its Dmax is < 50%.

What about the DC50 of the same compound?
The DC50 was 10 to 50 nM.
